In a melting point compilation (Tetko et al.; mined from patent text by program, amines drawn as free bases though some values may be those of a salt):

SMILES	melting point [°C]
C=CCN1C(=O)C2CCc3c(ccc(OC)c3OC)C2C1=O (configuration not stated)	147 to 148
O=C1C=C(c2cc(F)c(Br)cc2F)CC1	129 to 131
O=C(NN=C1c2cccc(F)c2SCC1c1ccc(F)cc1)Nc1ccc(C(F)(F)F)cc1 (configuration not stated)	217 to 219
CCOC(=O)C(Cc1ccccc1)NC(=O)COc1ccc(C2=NNC(=O)NC2)cc1C (configuration not stated)	148 to 150
Cc1cc(NC(=O)c2ccccc2C)ccc1Br	144 to 146
O=C(O)CC1c2ncccc2S(=O)(=O)N1c1ccccc1 (configuration not stated)	123 to 128
Cn1ncnc1COc1nc2c(-c3ccccc3)nncn2c1-c1ccccc1	179
CCc1c(-c2ccc(OC)cc2)c2c(C(=O)OC)c(C(=O)OC)c3cc(OC)cc1n32	153 to 155
C=C1CCC23OC2(C1)CC(C)C1C2CCC(O)C2(C)CCC13 (configuration not stated)	125
O=C(CCC1CCCCC1)NC1N=C(C2CCCCC2)c2ccccc2NC1=O (configuration not stated)	133 to 138
N#Cc1ncn2c1COC(=O)c1ccccc1-2	220 to 221
CN1CC(CCN2CCN(c3ccc(Cl)cc3)CC2)OC1=O (configuration not stated)	113 to 114
CC1=C(CC2=NCCN2)CCc2ccccc21	223 to 224
CC1(C)C(=O)N(c2ccc([N+](=O)[O-])c(C(F)(F)F)c2)C(=O)N1CCCCCCCN1C(=O)N(c2ccc([N+](=O)[O-])c(C(F)(F)F)c2)C(=O)C1(C)C	137 to 138
N#CC1=C2C=CC=c3ccccc3=C2CC=C1	109 to 111
CC1CCc2cc(F)cc3c(=O)c(C(=O)NN)cn1c23 (configuration not stated)	236 to 238
O=C(NO)c1ccc2c(c1)CCN(C(=O)NCCOc1ccccc1)C2	120 to 123
CCOC(=O)c1cnn(-c2nc(-c3cccc(C(F)(F)F)c3)cs2)c1C	138
CC(NC(=O)c1ccccc1I)C(O)c1ccccc1 (configuration not stated)	129 to 130
Cc1cc(=O)[nH]c2c3c(cc(O)c12)OC(C)C(C)C3=O (configuration not stated)	300
Cc1c[nH]c2c1C(=O)CC(c1ccccc1F)C2 (configuration not stated)	198 to 200
COc1ccc2c(c1)CCC1=C2CCC2(C)C(O)CCC12 (configuration not stated)	110 to 112
C#Cc1ccc(C2(C3CCCCCCC3)CCCCCCC2)cc1	167

SMILES	melting point [°C]
CC(Oc1ccc(Oc2ccc(Oc3ccc(OC(C)C(=O)O)cc3)cc2)cc1)C(=O)O (configuration not stated)	135 to 136
Cc1ccccc1OCC(O)CN1CCC(N2CCCNC2=O)CC1 (configuration not stated)	145 to 147
Cc1cc(C)nc(NC(=O)Cc2cc(Br)sc2Br)c1	109
Cn1nc2ccc(Cl)nn2c1=O	176 to 177
COC(=O)C(CCSC)N(C(=O)OC(C)(C)C)C(=O)c1ccc(N)cc1 (configuration not stated)	184 to 185
O=C(O)C1=C(c2cccs2)c2cc(Cl)ccc2OC1C(F)(F)F (configuration not stated)	201 to 207
Cc1ccc(C(=O)CO)cc1	83 to 87
C[Si](C)(C)CCOC1OC(COC(=O)c2ccccc2)C(O)C(O)C1N=[N+]=[N-] (configuration not stated)	55 to 57
CC(C)CCNc1nc(-c2ccccc2)c(-c2ccnc(Nc3ccccc3)n2)s1	170 to 172
OCC1CC(O)C(n2cnc3c(-n4cccc4)ncnc32)O1 (configuration not stated)	175 to 176
CNc1ccsc1C(=O)CS(C)=O (configuration not stated)	125 to 127
O=C(O)CN1C(=O)C(NC(CCc2ccccc2)C(=O)O)CCc2ccccc21 (configuration not stated)	256 to 259
O=C(O)C=CC(=O)c1cc(Cl)c(Cl)cc1Cl	177 to 181
COc1ccc(CCCC2(Br)C(=O)NC(=O)NC2=O)cc1	113 to 114
CC(=O)c1cc2c(s1)CCc1cc(=O)n(-c3ccc(C)cc3)nc1-2	240 to 242
O=C(CCCCOCc1ccccc1)c1ccc([N+](=O)[O-])cc1	75
Cc1cnc2[nH]cc(/C=C3\N=C(NCC4CC4)NC3=O)c2c1	319 to 320
CCOc1ccc(C=NOCCO)cn1	52 to 54
C=CCNC(=O)N1CC(Oc2ccc(F)cc2)C1	92 to 94
Cc1cc2c([C@@H]3C[C@H]3CNC(=O)C(F)(F)F)cccn2n1 (relative stereo)	136 to 138
Cc1ccc(C)c(NC(=O)C(C)c2ccc(N)c(N)c2)c1 (configuration not stated)	120 to 121
O=C(O)c1cc2c(s1)C(=O)CCC2	174 to 175

Now from value to compound:

melting point [°C]	SMILES
224 to 226	COc1ccc2c(c1)CC=C(C=Cc1ccc(C#N)cc1)O2
195 to 196	O=C(NCc1ccc(Cl)cc1)c1cn(N2CCOCC2)c2ccc(CN3CCOCC3)cc2c1=O
174 to 176	CC(C)CCOCc1cc(N2N=C(C(N)=O)NC2c2ccccc2)ccc1Cl (configuration not stated)
312 to 314	CN1CCN(c2ccc(Nc3ncc4c(n3)S/C(=C/c3ccc(O)cc3)C(=O)N4)cc2)CC1
131 to 132	CCOC(=O)c1nc(-c2ccc(Cl)cc2F)nc(N)c1Cl
176 to 178	CC(C)(O)COc1c(-c2ccc(S(N)(=O)=O)cc2)cnn(-c2ccc(F)c(Cl)c2)c1=O
170 to 171	CC1(C)N=C(N)N=C(N)N1OCc1cccc2ccccc12
174 to 175	Cc1oc(-c2ccccc2)nc1COc1ccc(C(=O)c2ccccc2OCC(=O)O)cc1
134	COc1ccc(S(=O)(=O)N(CCCN(C)C)c2ccc(Cl)cc2Cc2c(F)cccc2F)cc1OC
98 to 100	ON=C(c1ccc(Cl)cc1)c1ccc(Cl)cc1Cl
136 to 138	CC(=O)Nc1ccc(F)cc1OCc1ccccc1
221 to 222	CCOCc1nc2c(N)nc3cc(OCc4cccc(OC)c4)ccc3c2n1CC(C)(C)NS(C)(=O)=O
164 to 166	O=C(CCc1cccc([N+](=O)[O-])c1)c1c(O)c2cccnc2n(-c2ccccc2)c1=O
149 to 150	O=C(Cc1ccc(-c2ccc(F)cc2F)c(F)c1)NO
248 to 250	COCc1c(C=O)ncc2[nH]c3cccc(Cc4ccc(Cl)cc4)c3c12
75 to 77	CNC(=O)ON=C(Nc1ccc(C(F)(F)F)cc1)C1=NN(c2ccc(Cl)cc2)C(c2ccc(F)cc2)C1 (configuration not stated)
190 to 192	COc1ccc(C(=O)Nc2c(C)c(C)c3c(c2C)C(c2ccccc2)C(C)(C)O3)cc1 (configuration not stated)
168 to 170	COc1ccc2c(c1)c(OC(C)C)c(C(=O)Nc1ccccc1O)n2-c1ccccc1
183 to 185	COC(=O)c1ccc(NS(=O)(=O)c2ccc(F)cc2)cn1
182 to 183	CCOC(=O)c1c(CCc2ccc(O)cc2)oc2ccc(C#N)cc12
118 to 119	Cc1ccc(-c2nc(CCC(=O)c3ccc(Br)s3)c(C)o2)cc1
188 to 190	CC1(C)OC(=O)Nc2ccc(-c3cccc(CC#N)c3)cc21
195 to 197	CCOP(=O)(Cc1nnc2c(=O)[nH]c3c4ccccc4ccc3n12)OCC
248 to 250	COc1ccc(OC)c(Cc2n[nH]c3c2c(=O)n(-c2ccccc2)c2ncccc32)c1
245 to 247	COc1ccc(CC(=O)N[C@H]2C[C@H](C(=O)O)Nc3cc(Cl)cc(Cl)c32)cc1 (relative stereo)
180	COc1ccc(CN(C)CCCOc2ccc(NC(=O)c3cccc4c(=O)c5cccc(OC)c5[nH]c34)cc2)cc1OC
131 to 133	CC(C)(C)n1nnc(C(C=O)=C(c2ccc(F)cc2)c2ccc(F)cc2)n1
